{"source": "paper PMC11672551", "about": "“Cyclic Ruthenium-Peptide Prodrugs Penetrate the Blood–Brain Barrier and Attack Glioblastoma upon Light Activation in Orthotopic Zebrafish Tumor Models” (ACS Central Science, 2024)", "tested_on": "U87MG tumor cells in zebrafish hindbrain", "experiment": "Tumor targeting in zebrafish embryos, colocalization of drug emission with GFP-U87MG cells in the hindbrain", "type": "in vivo", "settings": "2 pmol, line-scan profiles of high-resolution images (Figure S35)", "experimental": "In a second step, the targeting of GBM cells by Ru-p(HH) was tested by detecting the colocalization of the red-emissive drug (excitation: 488 nm; emission detector window: 630–774 nm) with GFP-U87MG cells (excitation: 488 nm; emission: 485–575 nm). To clearly see the distribution of the drug and of the cancer cells in zebrafish, we used Tg(kdrl:mTurquoise)^hu7185Tg embryos. In this transgenic fish line, the blood vessels of the embryos are labeled by the mTurquoise fluorescent protein, which can be excited at 405 nm and emits at 464–480 nm. As shown in Figure 5a and Figure S33a, when only tumor cells were injected into the hindbrain of the zebrafish embryo, GFP was the only signal detected. […] By calculating the distribution and intensity of Ru-p(HH) emission in the region of U87MG cells in the brain, the PCC and MOC values for the top-down view of the hindbrain were determined to be 0.49 and 0.79, respectively, while those in the side images were 0.77 and 0.66 (Figure 5b, Figure S33b).\nFigure 5 Targeting a U87MG brain tumor with Ru-p(HH)in vivo. […] The Z-axis is the cell fluorescence intensity (green) and the drug fluorescence intensity (purple). […] Both PCC and MOC are calculated and are shown in the graph. […]", "data": [{"substance": "[Ru(Ph2phen)2(bpy)]Cl2", "values": [{"measurement": "MOC between prodrug and tumor, comparison with RGD-free control", "result": 0.35}, {"measurement": "PCC between prodrug and tumor, comparison with RGD-free control", "result": "−0.2"}]}]}
